# “Also recorded” adds a separate entry of the source.
# What was measured:
# [1] = test system: C57BL/6 mice given sublethal TBI; experiment: Thymic regeneration after sublethal total body irradiation (SL-TBI, 550 cGy); format: in vivo, mouse; settings: TC-G 1008 20 mg/mouse/day by guided feeding day 0 to day 10, 550 cGy TBI, day 10
# Source text: FIGS. 4A-4G. […] (4A, 4B) 6-8 week-old female C57BL/6 mice were fed a normal or ZD diet for 21 days at which point mice were given a sublethal dose of total body irradiation (TBI, 550 cGy). (4A) Total thymic cellularity at days 7 and 14 after TBI (n=10/treatment/timepoint across two independent experiments). (4B) Total number of CD45-EpCAM^+MHCII^+UEA1^loLy51^hi (cTECs) and CD45^− EpCAM^+MHCII^+UEA1^hi Ly51^lo (mTECs) at days 7 and 14 after TBI (n=10/treatment/timepoint across two independent experiments). (4C) 6-12 week-old female BALB.B mice were fed with normal or ZD diet for 21 days, at which point mice were given a lethal dose of TBI (900cGy) and 10×10^6 T cell-depleted bone marrow (BM) cells from 6-8 week-old C57BL/6. One cohort also received 2×10^6 T cells to induce graft versus host disease (GVHD); thymic cellularity was quantified on day 14 after allogeneic hematopoietic stem cell transplant (allo-HCT, n=5-6/group). (4D) 6-8 week-old female C57BL/6 mice were fed with normal or ZD diet for 21 days at which point mice were given 550 cGy TBI and total thymus cellularity quantified on day 14. […] (4E) Total thymic cellularity. (4F) Total number of cTECs and mTECs. (4G) Total number of Ki-67+ thymic endothelial cells (TECs). […]
# Bmp4 in exECs = experiment: Bmp4 expression by qPCR in exECs; format: cell-based, mouse; settings: TC-G 1008 25 μM, 24 hours, compared with ZnSO4 100 μM
# [2] = test system: mice given lethal TBI and T cell depleted BM (allo-HCT); experiment: Thymic reconstitution after T cell-depleted allogeneic HCT; format: in vivo; settings: BALB.B recipients, 900 cGy, TC-G 1008 20 mg/mouse/day day 0-8, 10 and 12, day 14
# [3] = test system: Male C57BL/6 mice aged 2 mo, 12 mo or 19 mo; experiment: Thymus cellularity in mice aged 2, 12 or 19 months; format: in vivo, mouse; settings: TC-G 1008 20 mg/kg/day for 5 days, day 7, versus untreated controls
# Procedure: FIG. 14. Male C57BL/6 mice aged 2 mo, 12 mo or 19 mo were given the GPR39 agonist TC-G 1008 (20 mg/kg/day) for 5 days. Thymus cellularity was measured at day 7.
# GPR39 = molecular target: T1, GPR39 (Mus musculus, UniProt Q5U431); experiment: Ca2+ live imaging of ECs with Fluo3-AM; format: cell-based; settings: 20 mins post stimulation, AUC
# T1 construct: endogenous in cells; host or cells: thymic endothelial cells (ECs / exECs)
# T1 sequence (Q5U431 1-456): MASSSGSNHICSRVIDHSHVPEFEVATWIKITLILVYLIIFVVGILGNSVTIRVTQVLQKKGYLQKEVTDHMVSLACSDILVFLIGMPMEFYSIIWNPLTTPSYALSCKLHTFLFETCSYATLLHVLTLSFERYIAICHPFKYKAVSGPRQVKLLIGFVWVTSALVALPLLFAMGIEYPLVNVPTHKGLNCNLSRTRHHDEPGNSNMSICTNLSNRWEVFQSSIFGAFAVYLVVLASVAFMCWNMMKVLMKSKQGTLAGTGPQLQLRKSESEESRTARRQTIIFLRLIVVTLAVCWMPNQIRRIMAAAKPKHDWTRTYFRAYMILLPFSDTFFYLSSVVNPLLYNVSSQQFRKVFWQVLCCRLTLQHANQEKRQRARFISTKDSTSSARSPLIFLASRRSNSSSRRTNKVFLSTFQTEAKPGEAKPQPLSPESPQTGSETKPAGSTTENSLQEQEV
# Source text: FIGS. 20A-20D. […] (20D) GPR39 cell surface levels in thymocytes and TECs at d0. Graphs represent mean+/−SEM.
structure (smiles),measurement,setting,value
"CNc1nc(NCc2ccc(NS(C)(=O)=O)cc2Cl)cc(-c2ccccn2)n1 [TC-G 1008, N-[3-chloro-4-[[[2-(methylamino)-6-pyridin-2-ylpyrimidin-4-yl]amino]methyl]phenyl]methanesulfonamide]",thymic function (thymus cellularity),[1],significantly improved thymic function
same,Bmp4 expression,Bmp4 in exECs,"induced expression of Bmp4, greater than Zn alone; also recorded: induces expression of BMP4"
same,thymic function,[2],significantly improved thymic function
same,thymus cellularity,[3],significantly improved thymus cellularity
same,Ca2+ influx,GPR39,incudes Ca2+ influx

# From patent publication US20230263800A1, “COMPOSITIONS AND METHODS TO PROMOTE THYMIC FUNCTION” (Fred Hutchinson Cancer Center, priority 2020, published 2023)
